Data taken from patent publication EP0699074B1, “THROMBIN INHIBITORS” (Merck & Co., Inc., priority 1993, dated 1994).

Target: human α-thrombin (Homo sapiens, UniProt P00734)
Details: 4-4 (L at Acg center, later eluting HPLC peak) compared with its diastereomer 4-3 (D)
Description: Trypsin assays also contained 1 mM CaCl2.
Concentrations of stock solutions of Z-GPR-afc were determined from measurements of absorbance at 380 nm of the 7-amino-4-trifluoromethyl coumarin produced upon complete hydrolysis of an aliquot of the stock solution by thrombin.
Times required to achieve equilibration between enzyme and inhibitor were determined in control experiments. Initial velocities of product formation in the absence (Vo) or presence of inhibitor (Vi) were measured.

CNC(=O)C(=O)[C@@H](NC(=O)[C@@H]1CCCN1C(=O)[C@@H](Cc1ccccc1)NC)[C@H]1CC[C@H](N)CC1 [4-4, H-NMe-D-Phe-Pro-t-L-AcgΨ[COCO]-NHMe]
thrombin inhibitor potency (comparison of the two isomers): more potent thrombin inhibitor
